# Data reported in patent US20240425524A1, “SPIROTRICYCLE RIPK1 INHIBITORS AND METHODS OF USES THEREOF” (Merck Sharp & Dohme LLC, priority 2021, published 2024).
# Target: RIPK1 (Homo sapiens (Human), UniProt Q13546)
# Experiment: RIPK1-ADP-Glo Enzymatic Assay
# Format: biochemical
# Details: recombinant GST-RIPK1 kinase domain (residues 1-327), 25 nM, ten-point titration, 30 minutes pre-incubation
# Description: The enzymatic activity of RIPK1 was measured using an assay derived from ADP-Glo kit (™Promega), which provides a luminescent-based ADP detection system. Specifically, the ADP generated by RIPK1 kinase was proportionally detected as luminescent signals in a homogenous fashion. In this context, the assessment of the inhibitory effect of small molecules (EC50) was measured by the effectiveness of the compounds to inhibit the ATP to ADP conversion by RIPK1.
# In this assay, the potency (EC50) of each compound was determined from a ten-point (1:3 serial dilution: top compound concentration of 100000 nM) titration curve using the following outlined procedure. To each well of a white ProxiPlus 384 well-plate, 30 nL of compound (1% DMSO in final assay volume of 3 μL) was dispensed, followed by the addition of 2 μL of 1x assay buffer (25 mM Hepes 7.3, 20 mM MgCl2, 50 mM NaCl, 1 mM DTT, 0.005% Tween20, and 0.02% BSA) containing 37.5 nM of GST-RIPK1 (recombinant GST-RIPK1 kinase domain (residues 1-327) enzyme produced from baculovirus-transfected Sf21 cells: MW=62 kDa). Plates were placed in an ambient temperature humidified chamber for a 30 minutes pre-incubation with compound. Subsequently, each reaction was initiated by the addition of 1 μL 1× assay buffer containing […] dephosphorylated-MBP substrate. The final reaction in each well of 3 μL consists of 25 nM of GST-RIPK1, 300 µM ATP, and 3 μM dephosphorylated-MBP. Kinase reactions were allowed to proceed for 150 minutes prior to adding ADP-Glo reagents per Promega's outlined kit protocol. Dose-response curves were generated by plotting percent effect (% product conversion: Y-axis) vs. Logio compound concentrations (X-axis). EC50 values were calculated using a non-linear regression, four-parameters sigmoidal dose-response model and are provided for example compounds of the invention (labeled “RIPK1 EC50 (nM)” throughout the above examples).
# RIPK1, sequence (Q13546 1-327): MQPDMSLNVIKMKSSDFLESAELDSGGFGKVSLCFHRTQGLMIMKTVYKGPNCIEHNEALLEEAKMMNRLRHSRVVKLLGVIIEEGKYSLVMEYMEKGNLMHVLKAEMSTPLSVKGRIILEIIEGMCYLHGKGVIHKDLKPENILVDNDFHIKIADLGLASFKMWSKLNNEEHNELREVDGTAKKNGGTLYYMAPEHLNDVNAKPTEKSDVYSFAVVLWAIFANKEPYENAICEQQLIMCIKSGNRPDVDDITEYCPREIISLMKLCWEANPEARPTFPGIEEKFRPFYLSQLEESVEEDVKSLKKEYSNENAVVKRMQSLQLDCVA
row,Structure (SMILES),EC50
1,"O=C1N2[C@H](c3cc(F)cc(F)c3)CCN2CC12CCN(c1ccnc(C(F)F)n1)CC2 [Example 1.8, (7′S)-1-[2-(difluoromethyl)pyrimidin-4-yl]-7′-(3,5-difluorophenyl)dihydro-1′H,3′H,5′H-spiro[piperidine-4,2′-pyrazolo[1,2-a]pyrazol]-1′-one]",0.016 µM
2,"O=C1N2[C@H](c3cc(F)cc(F)c3)CCN2CC12CCN(c1cncc(-n3cccn3)n1)CC2 [Example 1.70, (S)-1-(6-(1H-pyrazol-1-yl)pyrazin-2-yl)-7′-(3,5-difluorophenyl)dihydro-1′H,3′H,5′H-spiro[piperidine-4,2′-pyrazolo[1,2-a]pyrazol]-1′-one]",0.082 µM
3,"N#Cc1cc(N2CCC3(CC2)CN2CC[C@@H](c4cc(F)cc(F)c4)N2C3=O)ncn1 [Example 1.74, (S)-6-(7′-(3,5-difluorophenyl)-1′-oxodihydro-1′H,3′H,5′H-spiro[piperidine-4,2′-pyrazolo[1,2-a]pyrazol]-1-yl)pyrimidine-4-carbonitrile]",0.03 µM
4,"Cc1cc(F)c(C(=O)N2CCC3(CC2)CN2CC[C@@H](c4cc(F)cc(F)c4)N2C3=O)cc1F [Example 4.26, (S)-1-(2,5-difluoro-4-methylbenzoyl)-7′-(3,5-difluorophenyl) dihydro-1′H,3′H,5′H-spiro[piperidine-4,2′-pyrazolo[1,2-a]pyrazol]-l′-one]",0.023 µM
5,"N#Cc1ccc(N2CCC3(CC2)CN2CC[C@@H](c4cc(F)cc(F)c4)N2C3=O)nn1 [Example 1.37, (S)-6-(7′-(3,5-difluorophenyl)-1′-oxodihydro-1′H,3′H,5′H-spiro[piperidine-4,2′-pyrazolo[1,2-a]pyrazol]-1-yl)pyridazine-3-carbonitrile]",0.473 µM
6,"O=C1N2[C@H](c3cc(F)cc(F)c3)CCN2CC12CCN(c1ncc(C3CC3)cn1)CC2 [Example 1.56, (S)-1-(5-cyclopropylpyrimidin-2-yl)-7′-(3,5-difluorophenyl)dihydro-1′H,3′H,5′H-spiro[piperidine-4,2′-pyrazolo[1,2-a]pyrazol]-1′-one]",0.321 µM
7,"Cc1ccn(-c2ccnc(N3CCC4(CC3)CN3CC[C@@H](c5cc(F)cc(F)c5)N3C4=O)c2)n1 [Example 2.5, (S)-7′-(3,5-difluorophenyl)-1-(4-(3-methyl-1H-pyrazol-1-yl)pyridin-2-yl)dihydro-1′H,3′H,5′H-spiro[piperidine-4,2′-pyrazolo[1,2-a]pyrazol]-1′-one]",0.118 µM
8,"CN(C)c1nc(Cl)cc(N2CCC3(CC2)CN2CC[C@@H](c4cc(F)cc(F)c4)N2C3=O)n1 [Example 1.30, (S)-1-(6-chloro-2-(dimethylamino)pyrimidin-4-yl)-7′-(3,5-difluorophenyl)dihydro-1′H,3′H,5′H-spiro[piperidine-4,2′-pyrazolo[1,2-a]pyrazol]-1′-one]",0.11 µM
9,O=C1N2[C@H](c3cc(F)cc(F)c3)CCN2CC12CCN(c1ccc(Br)c3ccnn13)CC2 [Example 2.1],0.0075 µM
10,"O=C1N2[C@H](c3cc(F)cc(F)c3)CCN2CC12CCN(c1cc(Cl)ccn1)CC2 [Example 1.11, (7′S)-1-(4-chloropyridin-2-yl)-7′-(3,5-difluorophenyl)dihydro-1′H,3′H,5′H-spiro[piperidine-4,2′-pyrazolo[1,2-a]pyrazol]-1′-one]",0.028 µM
11,"O=C(c1cccc(F)c1F)N1CCC2(CC1)CN1CC[C@@H](c3cc(F)cc(F)c3)N1C2=O [Example 4.29, (S)-1-(2,3-difluorobenzoyl)-7′-(3,5-difluorophenyl) dihydro-1′H,3′H,5′H-spiro[piperidine-4,2′-pyrazolo[1,2-a]pyrazol]-l′-one]",0.023 µM
12,"COc1ccnc(N2CCC3(CC2)CN2CC[C@@H](c4cc(F)cc(F)c4)N2C3=O)n1 [Example 1.95, (S)-7′-(3,5-difluorophenyl)-1-(4-methoxypyrimidin-2-yl)dihydro-1′H,3′H,5′H-spiro[piperidine-4,2′-pyrazolo[1,2-a]pyrazol]-1′-one]",0.086 µM
13,"O=C1N2[C@H](c3cc(F)cc(F)c3)CCN2CC12CCN(c1ncc(OC(F)F)cn1)CC2 [Example 1.25, (S)-1-(5-(difluoromethoxy)pyrimidin-2-yl)-7′-(3,5-difluorophenyl)dihydro-1′H,3′H,5′H-spiro[piperidine-4,2′-pyrazolo[1,2-a]pyrazol]-1′-one]",0.038 µM
14,"CSc1cc(N2CCC3(CC2)CN2CC[C@@H](c4cc(F)cc(F)c4)N2C3=O)ncn1 [Example 1.14, (S)-7′-(3,5-difluorophenyl)-1-(6-(methylthio)pyrimidin-4-yl)dihydro-1′H,3′H,5′H-spiro[piperidine-4,2′-pyrazolo[1,2-a]pyrazol]-1′-one]",0.017 µM
15,"O=C(c1ccncc1)N1CCC2(CC1)CN1CC[C@@H](c3cc(F)cc(F)c3)N1C2=O [Example 4.5, (S)-7′-(3,5-difluorophenyl)-1-isonicotinoyldihydro-1′H,3′H,5′H-spiro[piperidine-4,2′-pyrazolo[1,2-a]pyrazol]-l′-one]",0.414 µM
16,"CC(F)(F)c1ccnc(N2CCC3(CC2)CN2CC[C@@H](c4cc(F)cc(F)c4)N2C3=O)n1 [Example 1.77, (S)-1-(4-(1,1-difluoroethyl)pyrimidin-2-yl)-7′-(3,5-difluorophenyl)dihydro-1′H,3′H,5′H-spiro [piperidine-4,2′-pyrazolo[1,2-a]pyrazol]-1′-one]",0.2 µM
17,"CCCOc1ccnc(N2CCC3(CC2)CN2CC[C@@H](c4cc(F)cc(F)c4)N2C3=O)c1 [Example 2.24, (S)-7′-(3,5-difluorophenyl)-1-(4-propoxypyridin-2-yl)dihydro-l′H,3′H,5′H-spiro[piperidine-4,2′-pyrazolo[1,2-a]pyrazol]-1′-one]",0.907 µM
18,"O=C1N2[C@H](c3cc(F)cc(F)c3)CCN2CC12CCN(c1cccc(F)c1)CC2 [Example 10.1, (S)-7′-(3,5-difluorophenyl)-1-(3-fluorophenyl) dihydro-1′H,3′H,5′H-spiro [piperidine-4,2′-pyrazolo[1,2-α]pyrazol]-1′-one]",0.047 µM
19,"CSc1ncc(C)c(N2CCC3(CC2)CN2CC[C@@H](c4cc(F)cc(F)c4)N2C3=O)n1 [Example 1.66, (S)-7′-(3,5-difluorophenyl)-1-(5-methyl-2-(methylthio)pyrimidin-4-yl)dihydro-1′H,3′H,5′H-spiro[piperidine-4,2′-pyrazolo[1,2-a]pyrazol]-1′-one]",0.673 µM
20,"O=C(c1cc(F)c(F)c(F)c1)N1CCC2(CC1)CN1CC[C@@H](c3cc(F)cc(F)c3)N1C2=O [Example 4.10, (S)-7′-(3,5-difluorophenyl)-1-(3,4,5-trifluorobenzoyl) dihydro-1′H,3′H,5′H-spiro[piperidine-4,2′-pyrazolo[1,2-a]pyrazol]-l′-one]",0.067 µM
21,"CNC(=O)c1ccnc(N2CCC3(CC2)CN2CC[C@@H](c4cc(F)cc(F)c4)N2C3=O)n1 [Example 1.90, (S)-2-(7′-(3,5-difluorophenyl)-1′-oxodihydro-1′H,3′H,5′H-spiro[piperidine-4,2′-pyrazolo[1,2-a]pyrazol]-1-yl)-N-methylpyrimidine-4-carboxamide]",0.106 µM
22,"COc1nc(OC)nc(N2CCC3(CC2)CN2CC[C@@H](c4cc(F)cc(F)c4)N2C3=O)n1 [Example 1.31, (S)-7′-(3,5-difluorophenyl)-1-(4,6-dimethoxy-1,3,5-triazin-2-yl)dihydro-1′H,3′H,5′H-spiro [piperidine-4,2′-pyrazolo[1,2-a]pyrazol]-1′-one]",0.285 µM
23,"Cc1cc(N2CCC3(CC2)CN2CC[C@@H](c4cc(F)cc(F)c4)N2C3=O)ccn1 [Example 2.3, (S)-7′-(3,5-difluorophenyl)-1-(2-methylpyridin-4-yl)dihydro-l′H,3′H,5′H-spiro[piperidine-4,2′-pyrazolo[1,2-a]pyrazol]-1′-one]",0.501 µM
24,O=C1N2[C@H](c3cc(F)cc(F)c3)CCN2CC12CCN(c1ncnc3scnc13)CC2 [Example 3.1],0.024 µM
25,"O=C1N2[C@H](c3cc(F)cc(F)c3)CCN2CC12CCN(c1cc(-n3ccnc3)ccn1)CC2 [Example 2.25, (S)-1-(4-(1H-imidazol-1-yl)pyridin-2-y1)-7′-(3,5-difluorophenyl)dihydro-1′H,3′H,5′H-spiro[piperidine-4,2′-pyrazolo[1,2-a]pyrazol]-1′-one]",0.05 µM
26,"O=C1N2[C@H](c3cc(F)cc(F)c3)CCN2CC12CCN(c1cccc3ccnn13)CC2 [Example 8.2, (S)-7′-(3,5-difluorophenyl)-1-(pyrazolo[1,5-α]pyridin-7-yl) dihydro-1′H,3′H,5′H-spiro [piperidine-4,2′-pyrazolo[1,2-α]pyrazol]-1′-one]",0.034 µM
27,"CSc1cnc(N2CCC3(CC2)CN2CC[C@@H](c4cc(F)cc(F)c4)N2C3=O)cn1 [Example 2.20, (S)-7′-(3,5-difluorophenyl)-1-(5-(methylthio)pyrazin-2-yl)dihydro-l′H,3′H,5′H-spiro[piperidine-4,2′-pyrazolo[1,2-a]pyrazol]-1′-one]",0.03 µM
